Results: patent US9593100B2, “Compounds and compositions as protein kinase inhibitors” (Array BioPharma, Inc., priority 2009, dated 2017)

Experiments:
[1] = In Vivo Pharmacokinetics Assay; parameters: species or system mouse; conditions: oral dose of 10 mg/kg
Experimental: (§1) Full pharmacokinetics study: Male Balb/c mice (n=3, body weights 22-25 g) or male Wistar rats (n=3, body weights 250-300 g) were administered the test compound intravenously via the lateral tail vein or orally via gavage. The formulation was typically a 2.5 mg/mL solution of the compound in 75% PEG300 and 25% D5W. Six blood samples of 50 μL each were collected serially for 24 h after dosing. The blood samples were centrifuged to separate the plasma. Plasma samples were analyzed and quantified by LC-MS/MS.
as §1, with “Rapid” for “Full”, “intravenously (IV)” for “intravenously”, “orally (PO)” for “orally”, “The blood samples were centrifuged to separate the plasma.” left out
For both full and rapid pharmacokinetics studies, the following parameters were calculated by non-compartmental regression analysis using Winnonlin 5.0 software (Pharsight, Mountain View, Calif., USA): plasma clearance (Cl), plasma maximum concentration (Cmax), plasma area-under-the-concentration-time-curve (AUC0-inf), and percent oral bioavailability (F %).

[2] = system: SW620 cells; assay: SW620 Cell Viability Assay (Cell Titer Glo); type: cell-based; conditions: 9 serial dilutions between 10 and 0.002 μM, FIG. 1
Experimental: SW620 cells were seeded in 1640 RPMI+10% FBS at a density of 1500 cells per 96-well in black walled, clear bottom tissue culture treated plates. Test compounds were serially diluted in DMSO then added to the cells (final DMSO concentration of 0.1%) and incubated at 37° C. and 5% CO2 for 4 days. To measure cell viability, cell plates were brought to room temperature, culture media was removed, and 200 μl of Cell Titer-Glo reagent (Promega, kit components mixed as per the manufacturer's protocol then diluted 1:2 with growth media) was added to each well. Plates were shaken for 5 minutes, then incubated at room temperature for 5 minutes, and the luminescence was measured (Trilux, Perkin Elmer).

[3] = system: p38α MAP Kinase; assay: A549 p38α MAP Kinase Bright-Glo Reporter Gene Assay; type: cell-based; conditions: ratio of p38 RGA IC50 to A375 CP IC50
Experimental: A549 cells were stably-transfected with the IL-8 promoter driven reporter, pGL3-IL8-Luc. The cells were plated at 4×10^5/ml into 384-well solid white plates (40 ul/well, 5% CD-FBS, 1×P/S, DMEM) and were incubated overnight (18-20 hours) at 37° C. Test compounds were serially diluted in DMSO, then 50 nl of test solution was added to the incubation (final DMSO concentration of 0.1%). After incubating with test compound for 30 min, cells were stimulated with 1 ng/ml IL-1 beta (10 ul of 5 ng/ml solution per well). Bright-Glo (25 ul/well) was added to measure luciferase expression after 7-8 hours of stimulation.

[4] = system: A375 cells; assay: A375 Cellular Proliferation Assay (A375 CP); type: cell-based; conditions: Homo sapiens, A-375, 48 h; A375-luc cells, 2 days
Experimental: A375-luc cells engineered to express luciferase are plated to 384-well white clear bottom plates as 1,500 cells/50 μl/well in DMEM containing 10% FBS. Compounds of the invention dissolved in 100% DMSO at appropriate concentrations are transferred to the cells by a robotic Pin Tool (100 nl). The cells are incubated for 2 days at […], then 25 μl of BrightGlo™ is added to each well and the plates are read by luminescence. The concentration of each compound for 50% inhibition (IC50) was calculated by non-linear regression using XL Fit data analysis software.

COC(=O)N[C@@H](C)CNc1nccc(-c2cn(C(C)C)nc2-c2cc(Cl)cc(NS(C)(=O)=O)c2F)n1 [Compound 9, Methyl N-[(2S)-1-({4-[3-(5-chloro-2-fluoro-3-methanesulfonamidophenyl)-1-(propan-2-yl)-1H-pyrazol-4-yl]pyrimidin-2-yl}amino)propan-2-yl]carbamate]
AUC (total drug exposure) [1]: 30 ± 4 µM·h
Effect on cellular proliferation [2]: induction in cellular proliferation

CNc1nccc(-c2cn(C(C)C)nc2-c2cc(Cl)cc(NS(C)(=O)=O)c2F)n1 [Compound 29, N-(5-chloro-2-fluoro-3-{4-[2-(methylamino)pyrimidin-4-yl]-1-(propan-2-yl)-1H-pyrazol-3-yl}phenyl)methanesulfonamide]
(p38 RGA)/(A375) ratio [3]: 220

COC(=O)N[C@@H](C)CNc1nccc(-c2cn(C(C)C)nc2-c2cc(NS(C)(=O)=O)c(C)c(OC)c2)n1 [Compound 27]
IC50 [4]: > 20 µM

COC(=O)NC[C@H](C)Nc1nccc(-c2cn(C(C)C)nc2-c2cc(Cl)cc(NS(C)(=O)=O)c2F)n1 [Compound 32, Methyl N-[(2S)-2-({4-[3-(5-chloro-2-fluoro-3-methanesulfonamidophenyl)-1-(propan-2-yl)-1H-pyrazol-4-yl]pyrimidin-2-yl}amino)propyl]carbamate]
(p38 RGA)/(A375) ratio [3]: 91
